Values quoted from earlier work in US11638700B2, “Iron/shikonin nano-composite and use thereof and method for preparing the same by supermolecular self-assembly” (Jilin University, priority 2020, dated 2023).

Conditions: generally considered

CC(C)=CC[C@@H](O)C1=CC(=O)c2c(O)ccc(O)c2C1=O [shikonin]
solubility of shikonin in water: insoluble in water
